Assay results from US8030354B2, “Substituted biphenyl GPR40 modulators” (Amgen Inc., priority 2007, dated 2011).

Key:
[1] = target: T1, GPR40 (Homo sapiens, UniProt O14842); experiment: Inositol phosphate accumulation assay (A9_GPR40 cells); type: cell-based; set-up: expressed in transfected cells; host or cells: CHO cells stably transfected with GPR40 and aequorin; conditions: inositol phosphate assay, A9_GPR40 cells, 1 hour; read-out: IP3 EC50
Protocol: Briefly, the Aequorin assays were performed on doubly stable CHO cells expressing GPR40 and Aequorin DNA. […] The luminescence was recorded over a period of 20 seconds with a Microlumat luminometer (Berthold). […] The inositol phosphate assay was performed on an A9 cell line stably transfected with GPR40 (A9_GPR40). The cells were incubated with different concentrations of compounds and [^3H] inositol accumulation was measured after 1 hour.
An A9 cell line stably transfected with GPR40 (A9_GPR40) was used in IP accumulation assays. A9_GPR40 cells were plated in 96-well plates containing 20,000 cells/well in DMEM containing 10% FBS. After the cells attached to the well surface, the media was replaced with inositol free DMEM containing 10% dialyzed FBS and 1 μCi, mL ^3H-inositol and incubated for 16 hours. Compounds were diluted in HBSS/10 mM LiCl containing a desired amount of HSA and added directly to cells. Following 1 hour incubation at 37° C., the media was replaced with 100 μL of 20 mM formic acid to quench the reaction. 50 μL of the extract was then added to 100 μL of SPA beads, incubated overnight, and measured on a TopCount the following day.

[2] = target: T1, GPR40; experiment: Cell-based aequorin assay (CHO cells stably expressing GPR40 and aequorin); set-up: expressed in transfected cells; host or cells: CHO cells stably transfected with GPR40 and aequorin; conditions: activation of human GPR40, CHO cells, 0.01% HSA
In short: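 CHO cells stably co-expressing GPR40 and aequorin, loaded with coelenterazine (1 ug/mL, 2 h, room temperature) in H/HBSS with 20 mM Hepes and 0.01% fatty acid-free HSA. Serially diluted compounds added; luminescence recorded over 20 s. EC50 from dose-response of maximum relative light units.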

T1 sequence (O14842 whole entry): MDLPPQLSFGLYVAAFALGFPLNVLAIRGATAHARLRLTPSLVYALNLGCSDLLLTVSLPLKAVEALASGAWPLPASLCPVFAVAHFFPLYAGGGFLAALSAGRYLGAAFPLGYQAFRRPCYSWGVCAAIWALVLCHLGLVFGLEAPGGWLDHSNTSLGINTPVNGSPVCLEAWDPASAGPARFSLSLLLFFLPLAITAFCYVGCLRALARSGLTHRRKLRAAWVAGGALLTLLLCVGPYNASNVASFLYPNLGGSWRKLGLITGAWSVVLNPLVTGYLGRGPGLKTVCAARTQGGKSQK

Row | Structure (SMILES) | EC50 [1] [nM] | EC50 [2] [nM]
1 | COc1cccc(-c2ccc(COc3cccc([C@H](C)CC(=O)O)c3)cc2C(C)(C)C)c1 (single isomer, unassigned) [Example 47, (3R)-3-(3-(((2-(1,1-Dimethylethyl)-3′-(methyloxy)-1,1′-biphenyl-4-yl)methyl)oxy)phenyl)butanoic acid or (3S)-3-(3-(((2-(1,1-dimethylethyl)-3′-(methyloxy)-1,1′-biphenyl-4-yl)methyl)oxy)phenyl)butanoic acid] | 100 to 1000 | 100 to 1000
2 | C=C(C)[C@H](CC(=O)O)c1cccc(OCc2ccc(-c3cc(OC)ccc3F)c(OCCCC)c2)c1 (single isomer, unassigned) [Example 50, (3S)-3-(3-(((2-(Butyloxy)-2′-fluoro-5′-(methyloxy)-1,1′-biphenyl-4-yl)methyl)oxy)phenyl)-4-methyl-4-pentenoic acid or (3R)-3-(3-(((2-(butyloxy)-2′-fluoro-5′-(methyloxy)-1,1′-biphenyl-4-yl)methyl)oxy)phenyl)-4-methyl-4-pentenoic acid] | 1000 to 10000 | 1000 to 10000
3 | C=CC[C@H](CC(=O)O)c1cccc(OCc2ccc(-c3cc(OC)ccc3F)c(C(C)(C)C)c2)c1 (single isomer, unassigned) [Example 51, (3R)-3-(3-(((2-(1,1-Dimethylethyl)-2′-fluoro-5′-(methyloxy)-1,1′-biphenyl-4-yl)methyl)oxy)phenyl)-5-hexenoic acid or (3S)-3-(3-(((2-(1,1-dimethylethyl)-2′-fluoro-5′-(methyloxy)-1,1′-biphenyl-4-yl)methyl)oxy)phenyl)-5-hexenoic acid] | 100 to 1000 | 100 to 1000
4 | COc1ccc(F)c(-c2ccc(COc3cccc([C@H](C)CC(=O)O)c3)cc2C2=CCCC2(C)C)c1 (single isomer, unassigned) [Example 55, (3R)-3-(3-(((2-(5,5-Dimethyl-1-cyclopenten-1-yl)-2′-fluoro-5′-(methyloxy)-1,1′-biphenyl-4-yl)methyl)oxy)phenyl)butanoic acid or (3S)-3-(3-(((2-(5,5-dimethyl-1-cyclopenten-1-yl)-2′-fluoro-5′-(methyloxy)-1,1′-biphenyl-4-yl)methyl)oxy)phenyl)butanoic acid] | 10 to 100 | 100 to 1000
5 | C=C(C)[C@H](CC(=O)O)c1cccc(OCc2ccc(-c3cccc(OC)c3)c(C(C)(C)C)c2)c1 (single isomer, unassigned) [Example 56, (3S)-3-(3-(((2-(1,1-Dimethylethyl)-3′-(methyloxy)-1,1′-biphenyl-4-yl)methyl)oxy)phenyl)-4-methyl-4-pentenoic acid or (3R)-3-(3-(((2-(1,1-dimethylethyl)-3′-(methyloxy)-1,1′-biphenyl-4-yl)methyl)oxy)phenyl)-4-methyl-4-pentenoic acid] | 100 to 1000 | 100 to 1000
6 | C=CC[C@H](CC(=O)O)c1cccc(OCc2ccc(-c3cccc(OC)c3)c(C(C)(C)C)c2)c1 (single isomer, unassigned) [Example 57, (3R)-3-(3-(((2-(1,1-dimethylethyl)-3′-(methyloxy)-1,1′-biphenyl-4-yl)methyl)oxy)phenyl)-5-hexenoic acid or (3S)-3-(3-(((2-(1,1-dimethylethyl)-3′-(methyloxy)-1,1′-biphenyl-4-yl)methyl)oxy)phenyl)-5-hexenoic acid] | 100 to 1000 | 100 to 1000
7 | CCC[C@H](CC(=O)O)c1cccc(OCc2ccc(-c3cc(OC)ccc3F)c(C3=CCCC3(C)C)c2)c1 (single isomer, unassigned) [Example 59, (3R)-3-(3-(((2-(5,5-Dimethyl-1-cyclopenten-1-yl)-2′-fluoro-5′-(methyloxy)-1,1′-biphenyl-4-yl)methyl)oxy)phenyl)hexanoic acid or (3S)-3-(3-(((2-(5,5-dimethyl-1-cyclopenten-1-yl)-2′-fluoro-5′-(methyloxy)-1,1′-biphenyl-4-yl)methyl)oxy)phenyl)hexanoic acid] | 10 to 100 | 100 to 1000
8 | CCCCOc1cc(COc2cccc([C@H](CCC)CC(=O)O)c2)ccc1-c1cc(OC)ccc1F (single isomer, unassigned) [Example 60, (3R)-3-(3-(((2-(Butyloxy)-2′-fluoro-5′-(methyloxy)-1,1′-biphenyl-4-yl)methyl)oxy)phenyl)hexanoic acid or (3S)-3-(3-(((2-(butyloxy)-2′-fluoro-5′-(methyloxy)-1,1′-biphenyl-4-yl)methyl)oxy)phenyl)hexanoic acid] | 100 to 1000 | 100 to 1000

More lines, now with the values ahead:

Row | EC50 [1] [nM] | EC50 [2] [nM] | Structure (SMILES)
9 | 10 to 100 | 100 to 1000 | COc1ccc(F)c(-c2ccc(COc3cccc(C(C)CC(=O)O)c3)cc2/C=C/C(C)(C)C)c1 (single isomer, unassigned) [Example 64.4, (3R)-3-(3-(((2-((1E)-3,3-Dimethyl-1-butenyl)-2′-fluoro-5′-(methyloxy)-1,1′-biphenyl-4-yl)methyl)oxy)phenyl)butanoic acid or (3S)-3-(3-(((2-((1E)-3,3-dimethyl-1-butenyl)-2′-fluoro-5′-(methyloxy)-1,1′-biphenyl-4-yl)methyl)oxy)phenyl)butanoic acid]
10 | 10 to 100 | 100 to 1000 | COc1ccc(F)c(-c2ccc(COc3cccc(C(C)CC(=O)O)c3)cc2C2=CCC(C)(C)CC2)c1 (single isomer, unassigned) [Example 64.5, (3R)-3-(3-(((2-(4,4-Dimethyl-1-cyclohexen-1-yl)-2′-fluoro-5′-(methyloxy)-1,1′-biphenyl-4-yl)methyl)oxy)phenyl)butanoic acid or (3S)-3-(3-(((2-(4,4-dimethyl-1-cyclohexen-1-yl)-2′-fluoro-5′-(methyloxy)-1,1′-biphenyl-4-yl)methyl)oxy)phenyl)butanoic acid]
11 | 10 to 100 | 100 to 1000 | COc1ccc(F)c(-c2ccc(COc3cccc(C(C)CC(=O)O)c3)cc2CCC(C)(C)C)c1 (single isomer, unassigned) [Example 64.6, (3R)-3-(3-(((2-(3,3-Dimethylbutyl)-2′-fluoro-5′-(methyloxy)-1,1′-biphenyl-4-yl)methyl)oxy)phenyl)butanoic acid or (3S)-3-(3-(((2-(3,3-dimethylbutyl)-2′-fluoro-5′-(methyloxy)-1,1′-biphenyl-4-yl)methyl)oxy)phenyl)butanoic acid]
12 | 10 to 100 | 100 to 1000 | COc1ccc(F)c(-c2ccc(COc3cccc(C(C)CC(=O)O)c3)cc2C2CCC(C)(C)CC2)c1 (single isomer, unassigned) [Example 64.7, (3R)-3-(3-(((2-(4,4-Dimethylcyclohexyl)-2′-fluoro-5′-(methyloxy)-1,1′-biphenyl-4-yl)methyl)oxy)phenyl)butanoic acid or (3S)-3-(3-(((2-(4,4-dimethylcyclohexyl)-2′-fluoro-5′-(methyloxy)-1,1′-biphenyl-4-yl)methyl)oxy)phenyl)butanoic acid]
13 | 100 to 1000 | 100 to 1000 | COc1ccc(F)c(-c2ccc(COc3cccc(C(C)CC(=O)O)c3)c(F)c2C(C)(C)C)c1 (single isomer, unassigned) [Example 64.10, (3R)-3-(3-(((2-(1,1-Dimethylethyl)-2′,3-difluoro-5′-(methyloxy)-1,1′-biphenyl-4-yl)methyl)oxy)phenyl)butanoic acid or (3S)-3-(3-(((2-(1,1-dimethylethyl)-2′,3-difluoro-5′-(methyloxy)-1,1′-biphenyl-4-yl)methyl)oxy)phenyl)butanoic acid]
14 | 100 to 1000 | 100 to 1000 | CCCC(C)(C)c1cc(COc2cccc(C(C)CC(=O)O)c2)ccc1-c1cc(OC)ccc1F (single isomer, unassigned) [Example 64.11, (3R)-3-(3-(((2-(1,1-Dimethylbutyl)-2′-fluoro-5′-(methyloxy)-1,1′-biphenyl-4-yl)methyl)oxy)phenyl)butanoic acid or (3S)-3-(3-(((2-(1,1-dimethylbutyl)-2′-fluoro-5′-(methyloxy)-1,1′-biphenyl-4-yl)methyl)oxy)phenyl)butanoic acid]
15 | 10 to 100 | 100 to 1000 | COc1ccc(F)c(-c2ccc(COc3cccc(C(C)CC(=O)O)c3)cc2C2=CCCCCC2)c1 (single isomer, unassigned) [Example 64.12, (3R)-3-(3-(((2-(1-Cyclohepten-1-yl)-2′-fluoro-5′-(methyloxy)-1,1′-biphenyl-4-yl)methyl)oxy)phenyl)butanoic acid or (3S)-3-(3-(((2-(1-cyclohepten-1-yl)-2′-fluoro-5′-(methyloxy)-1,1′-biphenyl-4-yl)methyl)oxy)phenyl)butanoic acid]
